# Like-named read-outs stand apart in the source and are kept apart here.
# Experiments:
# [1] = test system: HT29; assay: XTT proliferation assay, HT29; type: cell-based, human; settings: Homo sapiens, read-out: XTT Proliferationsassay, EC50 HT29
# From the text: (§1) Die Substanzen 1,2, 4-6 wurden in einem Proliferationstest an etablierten Tumorzelllinien auf ihre anti-proliferative Aktivität hin untersucht (D.A. Scuderio et al. Cancer Res. 1988, 48, 4827-4833). Der verwendete Test bestimmt die zelluläre Dehydrogenase-Aktivität und ermöglicht eine Bestimmung der Zellvitalität und indirekt der Zellzahl. Bei den verwendeten Zelllinien handelt es sich um die humane Cervixkarzinom Zelllinie KB/HeLa (ATCC CCL17), die ovariale Adenokarzinomzelllinie SKOV-3 (ATCC HTB77), die humane Glioblastom Zelllinie SF-268 (NCI 503138) und die Lungenkarzinom Zelllinie NCI-H460 (NCI 503473). Des weiteren wurde zur Untersuchung der Zellzyklus-spezifischen Wirkung der Substanz ein RKOp27 Zellsystem verwendet (M. Schmidt et al. Oncogene19(20):2423-9, 2000). Bei RKO handelt es sich um eine humane Kolonkarzinomlinie, in der der Zellzyklusinhibitor p27 ^kip1 mittels des Ecdyson Expressionssystems induziert zur Expression gebracht und zu einem Zellzyklusarrest spezifisch in G2 geführt werden kann. Eine unspezifisch wirkende Substanz hemmt die Proliferation unabhängig davon, ob die RKO Zelle in G1 oder G2 arretiert ist oder nicht. Zellzyklus-spezifische Substanzen wie beispielsweise Tubulininhibitoren sind hingegen nur dann zytotoxisch, wenn Zellen nicht arretiert sind und der Zellzyklus durchlaufen wird. In Tabelle 1 ist die zytotoxische bzw. wachstumshemmende Aktivität der beschriebenen Verbindungen mit / ohne Expression von p27^kip1gezeigt. Die getesteten Verbindungen zeigten im induzierten Zustand von p27^kiP1 keine zytotoxische Aktivität. Die Ergebnisse zeigen eine sehr potente Hemmung der Proliferation ausgewählter Tumorzelllinien durch die genannten Substanzen. Tabelle 1:
# (§2) Zur weiteren Charakterisierung wurden die Substanzen 1-6 an einem Panel von 7 humanen Tumorzelllinien auf ihre anti-proliferative Wirkung hin untersucht. Bei den untersuchten Zelllinien handelt es sich um die humanen Glioma Zelllinien A172 (ATCC CRL-1620) und U118 (ATCC HTB-15), die humane Lungenkarzinom Zelllinie A549, das humane epidermoide Karzinom A431 (ATCC CRL-2592), die humanen Prostatakarzinom Zelllinien DU145 (ATCC HTB-81) und PC3 (ATCC CRL-1435) und die humane Kolon Adenokarzinomzelllinie HT29 (ATCC HTB-38). Es handelt sich hierbei um sehr gut charakterisierte, etablierte Zelllinien, die von ATCC, ECACC bzw. NCI erhalten und in Kultur genommen wurden. Die in Tab. […]
# [2] = test system: DU145; assay: XTT proliferation assay, DU145; type: cell-based, human; settings: Homo sapiens, read-out: XTT Proliferationsassay, EC50 DU145
# From the text: as §1, §2
# [3] = biological target: Topoisomerase II (Homo sapiens, UniProt P11388); assay: pRYG relaxation assay for topoisomerase II activity; type: biochemical; settings: tested at 100, 31.6 and 10 µM
# Topoisomerase II, sequence (P11388 whole entry): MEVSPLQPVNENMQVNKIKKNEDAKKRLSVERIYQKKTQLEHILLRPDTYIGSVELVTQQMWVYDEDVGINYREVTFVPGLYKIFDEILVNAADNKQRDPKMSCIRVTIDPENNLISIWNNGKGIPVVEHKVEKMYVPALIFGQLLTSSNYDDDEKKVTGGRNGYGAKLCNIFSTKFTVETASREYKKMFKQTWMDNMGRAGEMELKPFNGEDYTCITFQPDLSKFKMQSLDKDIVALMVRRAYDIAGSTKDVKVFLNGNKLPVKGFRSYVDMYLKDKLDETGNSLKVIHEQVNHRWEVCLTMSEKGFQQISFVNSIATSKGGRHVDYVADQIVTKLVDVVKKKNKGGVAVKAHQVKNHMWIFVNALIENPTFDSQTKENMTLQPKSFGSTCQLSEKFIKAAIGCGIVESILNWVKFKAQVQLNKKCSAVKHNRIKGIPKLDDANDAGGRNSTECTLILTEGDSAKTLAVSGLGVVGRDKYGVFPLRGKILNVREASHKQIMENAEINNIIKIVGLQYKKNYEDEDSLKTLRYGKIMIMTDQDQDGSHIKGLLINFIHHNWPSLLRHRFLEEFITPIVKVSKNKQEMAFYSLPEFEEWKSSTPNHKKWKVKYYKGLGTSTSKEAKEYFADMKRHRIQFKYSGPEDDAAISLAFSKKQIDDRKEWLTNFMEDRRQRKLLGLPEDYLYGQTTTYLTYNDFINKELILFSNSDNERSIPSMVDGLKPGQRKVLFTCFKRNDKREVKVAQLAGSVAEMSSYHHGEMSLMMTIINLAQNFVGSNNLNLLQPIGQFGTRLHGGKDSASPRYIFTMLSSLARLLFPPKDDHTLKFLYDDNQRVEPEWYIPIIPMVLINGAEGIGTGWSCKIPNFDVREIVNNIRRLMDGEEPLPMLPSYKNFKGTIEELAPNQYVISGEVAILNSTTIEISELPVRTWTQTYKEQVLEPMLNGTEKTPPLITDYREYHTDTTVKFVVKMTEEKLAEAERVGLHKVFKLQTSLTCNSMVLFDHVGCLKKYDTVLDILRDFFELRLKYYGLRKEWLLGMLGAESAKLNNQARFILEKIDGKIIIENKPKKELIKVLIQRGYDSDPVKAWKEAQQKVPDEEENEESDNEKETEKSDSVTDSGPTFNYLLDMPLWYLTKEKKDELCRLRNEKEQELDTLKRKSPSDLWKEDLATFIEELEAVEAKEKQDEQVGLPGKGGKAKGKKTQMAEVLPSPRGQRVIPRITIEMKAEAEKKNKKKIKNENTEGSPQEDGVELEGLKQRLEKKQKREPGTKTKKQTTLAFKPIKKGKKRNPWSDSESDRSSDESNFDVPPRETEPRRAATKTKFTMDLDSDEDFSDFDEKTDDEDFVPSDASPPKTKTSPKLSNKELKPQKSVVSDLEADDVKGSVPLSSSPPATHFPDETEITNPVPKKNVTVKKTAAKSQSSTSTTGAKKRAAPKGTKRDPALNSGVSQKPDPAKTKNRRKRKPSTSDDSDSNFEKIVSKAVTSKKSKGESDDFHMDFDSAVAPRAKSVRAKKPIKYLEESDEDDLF
# Procedure: Mit diesem Relaxationsassay konnte zusätzlich die inhibitorische Eigenschaft der erfindungsgemäßen Verbindungen auf Topoisomerase II gezeigt werden. Die Testung der erfindungsgemäßen Verbindungen 2 und 4 erfolgte hierbei bei drei unterschiedlichen Konzentrationen (100, 31.6 und 10 µM). Zum Vergleich setzte man die Referenzverbindung m-Amsacrin bei einer Konzentration von 100µM ein.
# Zu 1µL vorgelegter Testsubstanz (20fach konzentriert in 100% DMSO) werden 2µL 10x Assay Puffer, 0,5µL pRYG DNA (125ng), 0,5µL human Topoisomerase II (1 unit) und 16µL H2O pipettiert und gemischt. Die Reaktionsansätze werden in den auf 37°C vorgeheizten Heizblock gestellt und 30min bei 37°C inkubiert. Die Inkubation wird nach Zugabe von 4µL 5x Stop Puffer abgestoppt. Danach werden 10µL des Ansatzes auf ein 1,2% Agarosegel mit 0,25µg/mL Ethidiumbromid aufgetragen und 2,5h bei 100V aufgetrennt. Zum Schluß wird das Gel unter UV Anregung fotografiert (s. Graph 3). Die Quantifizierung der Inhibierung der pRYG Relaxation erfolgt mit der GeIPro® Analyzer Software (s. Graph 4). [formula] [formula]
# [4] = test system: LT12; assay: XTT proliferation assay, LT12 (wild type); type: cell-based
# From the text: as §1
# (§3) Zur weiteren Charakterisierung wurden die Substanzen 1,2,4-6 gegenüber multi drug resistenten Zelllinien im Vergleich zu den nicht-resistenten Wildtypzelllinien untersucht.
# (§4) Bei den untersuchten Zelllinien handelt es sich um die murine L1210, die akute myeloische Leukaemie Zelllinie LT12 und um die resistenten Linien L1210/mdr und LT12/mdr. Außerdem wurden die murine P388 Zelllinie (methyl-cholanthreneinduced lymphoid neoplasm) sowie die Doxorubicin-resistente P388 als Testsysteme herangezogen.
# [5] = test system: LT12mdr; assay: XTT proliferation assay, LT12mdr (resistant); type: cell-based; settings: read-out: XTT Proliferationsassay, EC50 LT12mdr
# From the text: as §1, §3, §4
# [6] = test system: SKOV-3; assay: XTT proliferation assay, SKOV-3; type: cell-based; settings: Homo sapiens, SK-OV-3; read-out: XTT Proliferationsassay, EC50 SKOV3
# From the text: as §1, with “Substanzen.” for “Substanzen. Tabelle 1:”
# [7] = test system: P388; assay: XTT proliferation assay, P388 (wild type); type: cell-based, murine
# From the text: as §1, §3, §4
# [8] = test system: NCI-H460; assay: XTT proliferation assay, NCI-H460; type: cell-based; settings: Homo sapiens, read-out: XTT Proliferationsassay, EC50 NCI-H460
# From the text: as §1, with “Substanzen.” for “Substanzen. Tabelle 1:”
# [9] = test system: Rindertubulin; assay: Inhibition of tubulin polymerisation in vitro; type: biochemical, Rind; settings: Tubulin with 30% MAPs; mean of two independent experiments
# From the text: In diesem Test wird durch Zyklen von Polymerisation und Depolymerisation aufgereinigtes Tubulin eingesetzt, welches durch Zugabe von GTP und Erwärmung zur Polymerisation gebracht wird. […]
SMILES,EC50 ([1]; HT-29) [µg/mL],EC50 ([2]; DU-145) [µg/mL],Hemmung der Topoisomerase II (pRYG Relaxationsassay) [3],"EC50 ([4]; Rattus norvegicus, LT12, read-out: XTT Proliferationsassay, EC50 LT12) [µg/mL]",EC50 [5] [µg/mL],EC50 [6] [µg/mL],"EC50 ([7]; Mus musculus, P388, read-out: XTT Proliferationsassay, EC50 P388) [µg/mL]",EC50 [8] [µg/mL],"Hemmung der Tubulin-Polymerisation, EC50 [9] [µg/mL]","EC50 ([1]; HT-29, HT29) [µg/mL]","EC50 ([2]; DU-145, DU145) [µg/mL]","EC50 ([4]; Rattus norvegicus, LT12; read-out: XTT Proliferationsassay, EC50 LT12) [µg/mL]","EC50 ([7]; Mus musculus, P388; read-out: XTT Proliferationsassay, EC50 P388) [µg/mL]"
"O=C(Nc1ccc2ncccc2c1)C(=O)c1cn(Cc2ccc(Cl)cc2)c2ccccc12 [Verbindung 2, 2-[1-(4-Chlor-benzyl)-1 H-indol-3-yl]-2-oxo-N-chinolin-6-yl-acetamid]",0.027,0.047,signifikante Hemmung der Topoisomerase II,0.044,0.063,0.018,0.037,0.054,1.23,,,,
"O=C(Nc1ccc2ncccc2c1)C(=S)c1cn(Cc2ccc(Cl)cc2)c2ccccc12 [Verbindung 4, 2-[1-(4-Chlorbenzyl)-1 H-indol-3-yl]-N-chinolin-6-yl-2-thioxoacetamid]",,,signifikante Hemmung der Topoisomerase II,,,,,,0.97,0.04,0.045,,
"O=C(Nc1cnc2nccnc2c1)C(=O)c1cn(Cc2ccc(Cl)cc2)c2ccccc12 [Verbindung 5, 2-[1-(4-Chlor-benzyl)-1H-indol-3-yl]-2-oxo-N-pyrido[2,3-b]pyrazin-7-yl-acetamid]",,,,,0.017,0.029,,0.046,0.71,0.07,0.035,0.015,0.012

# From patent EP1484329A1, “Indole derivatives with apoptosis inducing activity” (Zentaris GmbH, priority 2003, dated 2004)
